Earlier results on 3 compounds are cited in US20090093542A1, “Copper antagonist compositions” (priority 2007, published 2009).

SMILES strings stand for the structures.

The conditions of data set [1]: long-term use in Wilson's disease.
For data set [2] the following is noted: solution of the free base itself.

For `CC(=O)[O-].CC(=O)[O-].[Zn+2]` [Zinc acetate], the “long-term or major side effects in patients” value in data set [1] was “has not shown any long-term or major side effects”.
As to `NCCNCCNCCN` [trientine, triethylenetetramine], in data set [2], the “pH of a solution” value was 14.
On to `CC(C)(S)[C@@H](N)C(=O)O` [Penicillamine, 3-mercapto-D-valine], for which the solubility in alcohol result (alcohol) was “slightly soluble”. In addition, for the setting “ether, acetone, benzene, carbon tetrachloride”, the “solubility in ether, acetone, benzene, and carbon tetrachloride” value is reported as “insoluble”. In addition, the solubility in water result (water) is reported as “freely soluble”.
